This note sets out measurements from US6528510B1, “HIV protease inhibitors” (Warner-Lambert Company, priority 1998, dated 2003).

Where two headings read alike, the source gives them in different places.

By Ki is commonly meant a measure of affinity in units of concentration, obtained from inhibition or displacement. Broadly, the EC50 is the concentration giving half of the maximal effect.

Data set [1] deals with uninfected CEM cells. In words: Cellular toxicity in uninfected CEM cells, XTT (TC50). As to the method:
(§1) Compound concentrations were 0.32, 1, 3.2, 10, 32, and 100 uM.

Data set [2] addresses T1, Recombinant HIV-1 protease (Human immunodeficiency virus type 1 group M subtype B, UniProt P04585).
T1 construct: Recombinant HIV-1 protease (>96% purity); purchased Bachem Bioscience, Inc. (King of Prussia, Pa.)
In words: HIV protease assay (Ki determination, HPLC readout of substrate III cleavage). It is filed as biochemical. How it is done: Recombinant HIV-1 protease (>96% purity) and HIV protease substrate III (the undecapeptide H-His-Lys-Ala-Arg-Val-Leu-Nph-Glu-Ala-Nle-Ser-NH2, 97% purity) were purchased from Bachem Bioscience, Inc. (King of Prussia, Pa.).
The methods employed follow the procedures of Tummino, et al., Archives of Biochemistry and Biophysics, 1995;316:523). […] (total volume, […]). […] The final inhibitor concentrations used were 0 (0.1, 0.2, in some experiments), 0.5, 1, 2, 5, 10, 20, 50, and 100 μM. The solution was mixed, incubated for 5 minutes and the reaction quenched by addition of trifluoracetic acid, 2% final. The (leu-p-nitro-phe) bond of the substrate is cleaved by the enzyme and substrate arid products separated by reverse-phase HPLC. Absorbance was measured at 220 nm, peak areas determined, and percentage conversion to product used to calculate percentage control (=[% conversion (+inhibitor)/% conversion (−inhibitor)]×100).

For data set [3], the system named is HIV infected lymphocyte derived CEM cells. The data set is described as follows: Cellular infection assay in CEM cells, XTT cytopathic procedure (EC50). The note with it: for TI (therapeutic index, TC50/EC50): CEM cells; for EC50: read-out: Antiviral Efficacy EC50. As to the method: as §1
(In general: Formazan colour is commonly taken as a measure of viable cells.)

A short description of data set [4]: Mouse blood levels after oral dosing. Conditions: CD-1, mouse, plasma, mice, oral dose of 25 mg/kg; for Cmax: read-out: Cmax (maximum concentration reached within the plasma); for half-life: read-out: T 1/2 (half life) (converted). It counts as in vivo, Charles River CD-1 mice. As to the method: Charles River CD-1 mice were dosed with a 25 mg/kg drug solution orally by gavage. For oral dosing the compounds were dissolved in 0.1N NaOH (20% final volume) and then 0.5% methylcellulose (80% final volume) was added. Blood was drawn and pooled from 5 mice at each time point via heart puncture and was placed in a 15 mL centrifuge tube containing heparin. The plasma stored in 200 μL aliquots at −80° C. until assayed.
Plasma was thawed at room temperature and then 400 μL of acetonitrile was added to each vial and vortexed. Following centrifugation the supernatant was removed and evaporated in a nitrogen evaporator at 48° C. Residue was then resolublized in 200 μL of a 75% water/25% CH3CN solution for HPLC analysis. HPLC analysis used a Zorbax RX-C8 column (4.6×150 mm) with a 25 mM potassium phosphate buffer with 0.1% TFA, pH 3.0. Mobile phases consisted of varying percentages of two buffer mixtures: Buffer A—90% buffer, 10% CH3CN, and Buffer B—30% buffer, 70% CH3CN.
A standard curve ranging from 0.5 to 50 μg/mL was used for each drug tested. Ten times final concentration solutions of drug in water were prepared from stock solutions of 1 mg/mL drug in DMSO. The final 1:10 dilution was then done in mouse plasma obtained from mice described above.

Data set [5] in a line: Cellular toxicity in uninfected CEM cells, XTT (TC50). The note with it: human, uninfected CEM cells (lymphocyte derived). How it is done:
as §1

Data set [6] in a line: Rat blood levels after IV dosing. It is filed as in vivo. The note with it: plasma, rats, IV dose of 10 mg/kg; for half-life: read-out: T 1/2 (half life) (converted). As to the method:
(§2) The procedure for pharmacokinetics analysis in dogs and rats was similar. For dog studies, two dogs received a single oral 10 mg/kg dose of the HIV protease inhibitor as a solution. The protease inhibitor was dissolve in 0.1N NaOH followed by buffering or diluting with isotonic phosphate buffer or water depending on solubility. For rat studies. two male rats received a single oral 10 mg/kg gavage dose of the HIV protease inhibitor suspended in 0.5% methylcellulose. For the IV administration, the compounds were dissolved in 0.1N sodium hydroxide at a concentration of 10 mg/ml. The IV dose was given bolus. Blood samples were collected prior to dosing and at 0.25, 0.5, 1, 1.5, 2, 3, 4, 8, 12, and 24 hours postdose. Plasma samples were analyzed for the HIV protease inhibitor using a HPLC procedure. The method involved plasma protein precipitation with acetonitrile, reverse-phase chromatographic separation of the HIV protease inhibitor and internal standard, and quantitation by UV detection. Some plasma samples were concentrated by evaporation prior to injection. Pharmacokinetic parameters were determined by noncompartmental analysis of individual rat-plasma concentration-time curves using WinNonlin. Maximum concentration (Cmax) and time for these to occur (tmax) were recorded as observed. Area under concentration-time curve (AUC) values were obtained using the linear trapezoidal rule.

The nature of data set [7]: Dog blood levels after oral dosing. It is filed as in vivo. Conditions: plasma, dogs, oral dose of 10 mg/kg. As to the method: as §2
Data set [8] is described as follows: Rat blood levels after oral dosing. Conditions: male, plasma, rats, oral dose of 10 mg/kg; for Cmax: read-out: Cmax (maximum concentration reached within the plasma); for half-life: read-out: T 1/2 (half life) (converted). It is filed as in vivo. As to the method:
as §2

[9] abbreviates: read-out: Antiviral Efficacy TC50, uninfected CEM cells.
[10] abbreviates: recombinant HIV-1 protease, read-out: Inhib of HIV Protease KI.
The mark [11] stands for this setting: Human immunodeficiency virus 1, CCRF-CEM.

On to `Cc1cc(SC2=C(O)CC(CCc3cc[nH]n3)(C(C)C)OC2=O)c(C(C)(C)C)cc1N` (centres unmarked) [Example 41], for which, in data set [1] (setting [9]), the CC50 is 195000 nM. Also, the Ki in data set [2] (setting [10]) is 6.5 nM. For the same molecule, the “TI (therapeutic index, TC50/EC50)” value in data set [3] was found to be 10. The EC50 in data set [3] (HIV infected CEM cells) worked out at 20000 nM.

For the molecule `Cc1cc(SC2=C(O)CC(CCc3ccoc3)(C(C)C)OC2=O)c(C(C)(C)C)cc1CO` (centres unmarked) [Example 4, 3-(2-tert-Butyl-4-hydroxymethyl-5-methyl-phenylsulfanyl)-6-(2-furan-3-yl-ethyl)-4-hydroxy-6-isopropyl-5,6-dihydro-pyran-2-one], in data set [4], the Cmax is 54 µM and the half-life is 5.6 h. In data set [5], this molecule showed a CC50 of 199000 nM. In data set [2] (setting [10]), the Ki came out at 0.35 nM. Also, the “TI (therapeutic index, TC50/EC50)” value in data set [3] came out at 199. For the same molecule, the EC50 in data set [3] (setting [11]) was 1000 nM.

Turning to `CC(C)[C@]1(CCc2cccc(F)c2)CC(O)=C(Sc2cc3sc(N)nc3cc2C(C)(C)C)C(=O)O1` [Example 83, (S)-3-(2-Amino-5-tert-butyl-benzothiazol-6-ylsulfanyl)-6-[2-(3-fluoro-phenyl)-ethyl]-4-hydroxy-6-isopropyl-5,6-dihydro-pyran-2-one], in data set [6], the C0 worked out at 199 µM and the half-life was 4 h. This molecule returned a CC50 in data set [5] of 61000 nM. Also, the Ki in data set [2] came out at 0.44 nM. Moreover, the “TI (therapeutic index, TC50/EC50)” value in data set [3] worked out at 235. In addition, the EC50 in data set [3] (setting [11]) was 260 nM.

For `Cc1cc(SC2=C(O)CC(CCc3ccsc3)(C(C)C)OC2=O)c(C(C)(C)C)cc1CO` (centres unmarked) [Example 7, 3-(2-tert-Butyl-4-hydroxymethyl-5-methyl-phenylsulfanyl)-4-hydroxy-6-isopropyl-6-(2-thiophen-3-yl-ethyl)-5,6-dihydro-pyran-2-one], in data set [4], the Cmax came to 40 µM and the half-life was 3.5 h. In data set [5], this molecule registered a CC50 of 110000 nM. In data set [2] (setting [10]), the Ki amounted to 0.17 nM. In addition, the “TI (therapeutic index, TC50/EC50)” value in data set [3] was 366. Besides, the EC50 in data set [3] (setting [11]) is 300 nM.

“3-(2-Amino-5-isopropyl-benzothiazol-6-yl-sulfanyl)-6-[2-(4-fluoro-phenyl)-ethyl]-phenethyl-4-hydroxy-6-isopropyl-5,6-dihydro-pyran-2-one [Example 16]”: the CC50 in data set [1] worked out at 114000 nM. The “TI (therapeutic index, TC50/EC50)” value in data set [3] is listed as 10.4. For the same molecule, the EC50 in data set [3] (HIV infected CEM cells) was determined as 11000 nM.

Take `Cc1cc(SC2=C(O)C[C@@](CCc3ccsc3)(C(C)C)OC2=O)c(C(C)(C)C)cc1CO` [Example 12, (S)-3-(2-tert-Butyl-4-hydroxymethyl-5-methyl-phenylsulfanyl)-4-hydroxy-6-isopropyl-6-(2-thiophen-3-yl-ethyl)-5,6-dihydro-pyran-2-one]: the Cmax in data set [7] was 149 µM; in data set [4], 95 µM; in data set [8], 30 µM. Further, the half-life is 1.75 h in data set [7] (read-out: T 1/2 (half life) (converted)), 9.5 h in data set [4], 11.5 h in data set [8] and 12 h in data set [6]. The C0 in data set [6] is 160 µM. This molecule also showed a CC50 in data set [5] of 91000 nM. In data set [2] (setting [10]), the Ki amounted to 0.07 nM. Also, in data set [3], the “TI (therapeutic index, TC50/EC50)” value came out at 650. The EC50 in data set [3] (setting [11]) was determined as 140 nM.

Regarding “(S)-N-[6-tert-Butyl-5-(4-hydroxy-6-isopropyl-2-oxo-6-[2-(4-hydroxy-phenyl)ethyl]-5,6-dihydro-2H-pyran-3-ylsulfanyl)-indolin-1yl]-(4-cyanophenyl)sulfonamide [Example 70]”, the CC50 in data set [1] (setting [9]) is 8000 nM. In data set [2] (setting [10]), the Ki amounted to 0.82 nM. The “TI (therapeutic index, TC50/EC50)” value in data set [3] came out at 6. Moreover, the EC50 in data set [3] (HIV infected CEM cells) was found to be 1300 nM.

`CC(C)C1(CCc2ccccc2CO)CC(O)=C(Sc2cc3cc[nH]c3cc2C(C)(C)C)C(=O)O1` (racemic) [Example 69, 4-Hydroxy-3-(6-tert-butyl-indol-5-ylsulfanyl)-6-[2-(2-hydroxymethyl-phenyl)-ethyl]6-isopropyl-5,6-dihydropyran-2-one]: in data set [6], the C0 was 335 µM and the half-life was 4.5 h. The same molecule gave a CC50 in data set [5] of 55000 nM. In addition, in data set [2], the Ki was found to be 0.67 nM. Besides, in data set [3], the “TI (therapeutic index, TC50/EC50)” value was 306. Besides, in data set [3] (setting [11]), the EC50 came out at 180 nM.

In data set [5], `Cc1cc(SC2=C(O)CC(CCc3ccc(CO)s3)(C(C)C)OC2=O)c(C(C)(C)C)cc1O` (racemic) [Example 37, 3-(2-tert-Butyl-4-hydroxy-5-methyl-phenylsulfanyl)-4-hydroxy-6-[2-(5-hydroxymethyl-thiophen-2-yl)-ethyl]-6-isopropyl-5,6-dihydro-pyran-2-one] showed a CC50 of 100000 nM. The Ki in data set [2] turned out to be 0.37 nM. Further, the “TI (therapeutic index, TC50/EC50)” value in data set [3] worked out at 24. Further, the EC50 in data set [3] (setting [11]) was determined as 4200 nM.

For the molecule `Cc1cc(SC2=C(O)CC(CCc3nccs3)(C(C)C)OC2=O)c(C(C)(C)C)cc1CO` (centres unmarked) [Example 25, 3-(2-tert-Butyl-4-hydroxymethyl-5-methyl-phenylsulfanyl)-4-hydroxy-6-isopropyl-6-(2-thiazol-2-yl-ethyl)-5,6-dihydro-pyran-2-one], the Cmax stood at 33 µM in data set [4] and 6 µM in data set [8]. For the same molecule, the figures for the half-life in data set [4], in data set [8] and in data set [6] were 3.3 h, 12 h and 8 h, respectively. For the same molecule, in data set [6], the C0 turned out to be 120 µM. The CC50 in data set [5] is 216000 nM. The Ki in data set [2] (setting [10]) is 0.57 nM. In addition, in data set [3], the “TI (therapeutic index, TC50/EC50)” value was 308. In data set [3] (setting [11]), the EC50 turned out to be 700 nM.

For the molecule `Cc1cc(SC2=C(O)CC(CCc3ccco3)(C(C)C)OC2=O)c(C(C)(C)C)cc1CO` (centres unmarked) [Example 5, 3-(2-tert-Butyl-4-hydroxymethyl-5-methyl-phenylsulfanyl)-6-(2-furan-2-yl-ethyl)-4-hydroxy-6-isopropyl-5,6-dihydro-pyran-2-one], in data set [5], the CC50 came out at 190000 nM. The Ki in data set [2] (setting [10]) was 0.78 nM. Moreover, the “TI (therapeutic index, TC50/EC50)” value in data set [3] is on record as 253. In addition, the EC50 in data set [3] (setting [11]) came out at 750 nM.

As to `CC(C)[C@]1(CCc2ccccc2)CC(O)=C(Sc2cc3sc(N)nc3cc2C(C)(C)C)C(=O)O1` [Example 13, (S)-3-(2-Amino-5-tert-butyl-benzothiazol-6-ylsulfanyl)-4-hydroxy-6-isopropyl-6-phenethyl-5,6-dihydro-pyran-2-one], in data set [8], the Cmax came out at 5.1 µM and the half-life was 8.6 h. In data set [5], this molecule had a CC50 of 42000 nM. In addition, the “TI (therapeutic index, TC50/EC50)” value in data set [3] amounted to 152. In addition, the EC50 in data set [3] (setting [11]) came out at 280 nM.

`CC(C)[C@]1(CCc2ccccc2)CC(O)=C(Sc2cc3sc(NS(C)(=O)=O)nc3cc2C(C)(C)C)C(=O)O1` [Example 79, (S)-N-[5-tert-Butyl-6-(4-hydroxy-6-isopropyl-2-oxo-6-phenethyl-5,6-dihydro-2H-pyran-3-ylsulfanyl)-benzothiazol-2-yl]-methanesulfonamide]: the CC50 in data set [5] was found to be 125000 nM. Moreover, the Ki in data set [2] amounted to 2.1 nM. Moreover, the “TI (therapeutic index, TC50/EC50)” value in data set [3] was 56. The EC50 in data set [3] (setting [11]) was 2200 nM.
